According to patent US9707239B2, “Compounds that modulate oxidative stress” (vTv Therapeutics LLC, priority 2011, dated 2017):
“Also recorded” adds a separate entry of the source.

How the values were obtained:
NHLF cells [1] = test: Cytoprotection of cisplatin (CDDP)-treated NHLF cells (propidium iodide staining); type: cell-based; conditions: NHLF cells, compound 24 hours prior to cisplatin exposure, FIG. 8
Description: (§1) A key outcome of Bach1 derepression and Nrf2 activation are the induction of cytoprotective genes. A method to test such cytoprotection is to assess the ability of a compound to protect normal human cells such as lung fibroblasts from toxicity due to cisplatin exposure. A model of cellular cytoprotection was established whereby normal human lung fibroblasts were treated with Bach1 modulators and then subsequently exposed to cisplatin. NHLF cells are very sensitive to cisplatin exposure; following a dose of 200 uM cisplatin, >90% of NHLF cells are propidium iodide positive, a measure of cell death.

HMOX1 [2] = test: HMOX1 induction in NHLF cells in the cisplatin cytoprotection model; type: cell-based, human; conditions: compound 24 hours prior to cisplatin, FIG. 8
Description: as §1

[3] = system: human bone marrow mesenchymal stem cells (BMMSC); test: Differentiation of bone marrow mesenchymal stem cells to adipocytes (Oil Red staining); type: cell-based; conditions: high glucose, 21 days continuous exposure, FIG. 10
From the text: In this assay, the cells are continuously exposed to compound for 21 days and then tested for the presence of oil-Red staining lipid droplets.

HMOX1 [4] = test: HMOX1 induction in human bone marrow-derived mesenchymal stem cells (Western blotting); type: cell-based; conditions: BMMSC, 3 and 10 days of exposure, FIG. 9
Description: Previous work has shown that HMOX1 expression can suppress the differentiation of human bone marrow mesenchymal stem cells (BMMSC) into adipocytes, a process termed adipogenesis [Li et al., Diabetes 57(6):1526-1535 (2008)]. As such, we tested Bach1 modulators for the ability to suppress BMMSC differentiation into adipocytes in the presence of high glucose containing media. Two Bach1 modulators and a null compound were tested to determine the ability of the compounds to induce HMOX1 after 3 and 10 days of exposure to compound.

human Bach1 = test: MARE controlled luciferase reporter gene assay in HepG2 cells with or without Bach1 expression; type: cell-based; conditions: transient transfection, with or without Bach1 expressing plasmid, FIG. 7
Description: The ability of Compound 13 to act in a manner similar to CoPP provides evidence for the hypothesis that Bach1 activity is being modulated by the compounds. […] To that end, expression vectors were prepared which contained the HMOX1 mARE promoter element recognized by both Bach1 and Nrf2. This element was placed in control of the reporter gene luciferase. Under conditions of transient transfection of HepG2 cells, the reporter has a low level of basal activity due to the relative ratio of Bach1 and Nrf2 found in the cell. Co-transfection with a Bach1 expressing plasmid leads to repression of luciferase activity. Therefore, one can test whether the compounds can increase the level of luciferase in the cells, thus overcoming Bach1 repression. […] Thus, the tested compound is able to overcome suppression by additional Bach1.

NHLF cells [5] = test: ROS measurements (H2DCF-DA imaging); type: cell-based, human; conditions: 1 hr, cell-by-cell imaging, FIG. 3A/3B
Description: Secondary growth of NHLF cells were used for all assays. Cells were cultured as above. Cells were plated into 384-well BD-Optilux Plates at 2,000 cells/well and cultured overnight at 37° C. and 5% CO2. The following day, cell were washed and 2,7-dihydrodichlorofluorescin diacetate (H2DCF-DA), 10 μM ferric ammonium citrate (FAC), and Hoechst stain were added to cells for 30 min. The cells were washed once with PBS to remove any H2DCF-DA not taken up by cells. Test compounds were prepared in FBM-2 media at the desired concentrations. The plates and stain-treated cells were incubated with test compounds for 1 hr at 37° C. and 5% CO2. Following the incubation period, ROS generation was determined by imaging the cells on a GE INcell 1000 imager (Hoechst Ex. 360 Em. 535; H2DCF-DA 488 Ex. 480 Em. 535). ROS levels were determined and quantified using GE IN Cell Analyzer Software.
In addition to gene profiling, the requirement for ROS generation or chemical reactivity was tested. ROS generation was measured using an automated imaging technique. Compound 13 as well as two other compounds that were found in the screening set were tested in this experiment. Untreated NHLF cells, NHLF cells treated with the HMOX1 inducer CoPP (a negative control), and NHLF cells treated with curcumin or celestrol (positive controls) were included as controls. […] Further experiments were also conducted on chemical derivatives of Compound 13. In those experiments, all compounds tested were found not to induce an elevation of ROS levels in the cell (FIG. 3B). Thus, Compound 13 and related compounds represent a class of agents that elevate HMOX1 production without elevating ROS production.

HMOX1 [6] = test: Effect of NAC on compound induction of HMOX gene expression; type: cell-based, human; conditions: NHLF cells pretreated with 5 mM NAC 1 hr, compound 6 h, FIG. 4
Description: NHLF cells were grown to 80% confluency and harvested by washing once with HEPES and then trypsinizing. Equal numbers (7×10^4 cells per well) of NHLF cells were plated in 96 well tissue culture (Corning) plates. Cells were incubated overnight in FGM-2 medium prior to exposure to compound. Cells were pretreated with 5 mM N-acetyl cysteine for 1 hr. Cells were treated with either DMSO or compound for 6 h. Preparation of cell lysates was carried out according to Quantigene Reagent system 2.0 protocol (Panomics). Heme oxygenase mRNA induction was detected from cell lysate using the Quantigene Plex 2.0 Assay Kit (Panomics) on the Luminex platform (BIO-RAD). Expression of GAPDH mRNA was used as the internal control for the Quantigen Plex 2.0 Assay. Heme oxygenase data represents the fold change, normalized to control values, above DMSO treated cells.
A further test of the hypothesis that Compound 13 induces HMOX1 with minimal alteration of cellular redox levels or chemical reactivity was carried out by treating cells with N-acetyl cysteine (NAC). This compound acts to restore cellular glutathione levels and thus prevent oxidative stress. The degree to which NAC can suppress HMOX1 induction is an indicator of the amount of chemical reactivity or ROS stress that a compound is imposing on the cell and thus activating phase II gene transcription. […] Coupled with the data shown in FIG. 3, it is concluded that Compound 13 induces HMOX1 with minimal elevation of ROS or NAC-sensitive chemical reactivity.

Nrf2 = test: HMOX1 mRNA induction after Nrf2 siRNA silencing; type: cell-based, human; conditions: NHLF cells, 50 nM siRNA 48 hours, FIG. 5
Description: Small interfering RNA targeting Nrf-2 (cat# SI03246614) or KEAP-1 (cat# SI03246439) were obtained from Qiagen at 20 nmol/tube. Negative control siRNA (cat#1027280) was also obtained from Qiagen. Lyophilized siRNA in each tube was resuspended with 1 ml of the provided siRNA Suspension Buffer to make a stock solution of 20 μM and tubes were heated at 90° C. for one minute and then at 37° C. for one hour prior to initial use.
Normal human lung fibroblasts were plated at 5000 cells/well in 96-well plates and allowed to attach. Prior to experiments, well s containing the cells were refreshed with 30 μl of complete growth medium. For each siRNA type, a 4× concentration (200 nM) of siRNA was prepared by adding 11 μl of siRNA stock into 1.1 ml of serum-free medium containing 9 μl/ml of SILENTFECT Lipid Reagent (BioRad, cat#170-3361). This solution was incubated at room temperature for 20 minutes prior to adding 10 μl into each well for a final concentration of 50 nM siRNA. Cells were incubated with siRNA for 48 hours, after which they were treated with compound for either 5 hours (QuantiGene RNA assay) or 15 hours (protein immunofluorescence assay).
The predicted response profile is that silencing of Nrf2 should reduce the amount of HMOX1 induction by Compound 13 and other HMOX1 inducers that are electrophiles or reactive compounds. To that end, Compound 13 and other tool compounds were tested in cells that were treated with siRNA directed to Nrf2. Following gene silencing with specific siRNA or control siRNA, the ability of tool compounds to induce HMOX1 mRNA was determined.

| Structure (SMILES) | protection against cisplatin toxicity (NHLF cells [1]) | HMOX1 induction (HMOX1 [2]) | inhibition of adipogenesis (Oil Red staining) [3] | HMOX1 induction by Western blotting (HMOX1 [4]) | luciferase activity of HMOX1 mARE reporter (human Bach1) | ROS production (in words) (NHLF cells [5]) | effect of N-acetyl cysteine (NAC) on HMOX1 induction (HMOX1 [6]) | HMOX1 mRNA induction with siRNA directed to Nrf2 (Nrf2) |
| --- | --- | --- | --- | --- | --- | --- | --- | --- |
| CN(C)C(=O)CNC(=O)c1ccc2c(c1)nc(Nc1nc3ccc(OC(F)(F)F)cc3s1)n2C [Compound 9, 1-Methyl-2-(6-trifluoromethoxy-benzothiazol-2-ylamino)-1H-benzoimidazole-5-carboxylic acid dimethylcarbamoylmethyl-amide] | near-total cellular protection; also recorded: protect the cells from CDDP-mediated toxicity | induced HMOX1 | suppress Oil-O red staining; also recorded: inhibited stem cell differentiation | induced HMOX1 | – | – | – | – |
| Cn1c(Nc2nc3ccc(Cl)cc3s2)nc2cc(C(=O)NCC(=O)O)ccc21 [Compound 12, {[2-(6-Chloro-benzothiazol-2-ylamino)-1-methyl-1H-benzoimidazole-5-carbonyl]-amino}-acetic acid] | failed to protect NHLF cells against cisplatin toxicity; also recorded: failed to protect cells from CDDP-mediated cytotoxicity | inactive HMOX1 inducers; also recorded: did not induce HMOX1 | fails to inhibit adipogenesis; also recorded: failed to do so | failed to induce HMOX1 | – | – | – | – |
| CNC(=O)c1ccc2[nH]c(Nc3nc4ccc(OC(F)(F)F)cc4s3)nc2c1 [Compound 7, 2-(6-Trifluoromethoxy-benzothiazol-2-ylamino)-1H-benzoimidazole-5-carboxylic acid methylamide] | – | – | – | – | able to induce luciferase activity in the presence or absence of Bach1 protein expression; also recorded: can overcome this repression | – | – | – |
| CC(C)(C)N1C(=O)C=C(c2cccc(-n3cc(-c4ccc(Cl)cc4Cl)nc3Cc3ccc(Br)cc3)c2)S1(=O)=O [Compound 15, 5-{3-[2-(4-Bromo-benzyl)-4-(2,4-dichloro-phenyl)-imidazol-1-yl]-phenyl}-2-tert-butyl-1,1-dioxo-1,2-dihydro-isothiazol-3-one] | – | – | – | – | – | elevated ROS levels to a greater degree than did Compound 13; also recorded: little increase in ROS production | inhibited nearly fully by NAC; also recorded: fully suppressed in the presence of NAC | affected by the presence of the siRNA for Nrf2; also recorded: requires Nrf2 for full induction of HMOX1 mRNA |
| CC(C)(C)N1C(=O)C=C(c2cccc(N(CC(=O)c3ccc(Cl)cc3Cl)C(=O)Cc3ccc(Br)cc3)c2)S1(=O)=O [Compound 14, 2-(4-Bromo-phenyl)-N-[3-(2-tert-butyl-1,1,3-trioxo-2,3-dihydro-1H-isothiazol-5-yl)-phenyl]-N-[2-(2,4-dichloro-phenyl)-2-oxo-ethyl]-acetamide] | – | – | – | – | – | elevated ROS levels to a greater degree than did Compound 13; also recorded: little increase in ROS production | inhibited nearly fully by NAC; also recorded: fully suppressed in the presence of NAC | affected by the presence of the siRNA for Nrf2; also recorded: requires Nrf2 for full induction of HMOX1 mRNA |
| Cn1c(Nc2nc3ccc(OC(F)(F)F)cc3s2)nc2cc(C(=O)NCCOCCO)ccc21 [Compound 10, 1-Methyl-2-(6-trifluoromethoxy-benzothiazol-2-ylamino)-1H-benzoimidazole-5-carboxylic acid [2-(2-hydroxy-ethoxy)-ethyl]-amide] | near-total cellular protection; also recorded: protect the cells from CDDP-mediated toxicity | induced HMOX1 | suppress Oil-O red staining; also recorded: inhibited stem cell differentiation | induced HMOX1 | – | – | – | – |
